The nature of data set [1]: Solubilization test of hydrocortisone: turbidity at 450 nm. It is filed as physicochemical. The conditions noted are these: for turbidity: solubilizing agent 0.050% by mass in PBS, hydrocortisone 20 mg/mL in ethanol, 125 μL/well, absorbance 450 nm minus PBS alone; for turbidity ratio to PBS: solubilizing agent 0.050% by mass, hydrocortisone, less than 10% = dissolved. The method, then:
Hydrocortisone was dissolved in ethanol at a concentration of 20 mg/mL to prepare a hydrocortisone solution.
In the same manner as above except that PBS was used instead of the solubilizing solution, “turbidity of a mixture of PBS and a hydrocortisone solution” (that is, difference between the absorbance of a mixture of PBS and a hydrocortisone solution at a wavelength of 450 nm and the absorbance of PBS alone at a wavelength of 450 nm) was measured.

Data set [2] in a line: Solubilization test of cholecalciferol (vitamin D3): turbidity (absorbance at 450 nm) of a mixture of solubilizing solution and cholecalciferol solution. The conditions noted are these: for turbidity: 100 μL + 1 μL cholecalciferol 20 mg/mL in ethanol, absorbance 450 nm minus PBS alone; for turbidity ratio to PBS: cholecalciferol, less than 10% = dissolved. Format: physicochemical. As to the method: Cholecalciferol (vitamin D3) was dissolved in ethanol at a concentration of 20 mg/mL to prepare a cholecalciferol solution. […] The cholecalciferol solution was dispensed at 1 uL/well. The mixture in each well was stirred for 1 min, and the absorbance of the mixture at a wavelength of 450 nm was measured. In addition, the absorbance of PBS alone not containing cholecalciferol at a wavelength of 450 nm was measured. The difference between the absorbance of the mixture of the solubilizing solution and the cholecalciferol solution at a wavelength of 450 nm and the absorbance of PBS alone at a wavelength of 450 nm was taken as “turbidity of a mixture of a solubilizing solution and a cholecalciferol solution”. A smaller turbidity indicates a larger amount of a hardly water-soluble substance dissolved therein.
In the same manner as in the above except that PBS was used instead of the solubilizing solution, “turbidity of a mixture of PBS and a cholecalciferol solution” (that is, difference between the absorbance of a mixture of PBS and a cholecalciferol solution at a wavelength of 450 nm and the absorbance of PBS alone at a wavelength of 450 nm) was calculated.
As an index for evaluation of whether or not cholecalciferol is dissolved, turbidity ratio to PBS was calculated by the following formula: • turbidity ratio to PBS (%)=100×(turbidity of a mixture of solubilizing solution and cholecalciferol solution)/(turbidity of a mixture of PBS and cholecalciferol solution). When the turbidity ratio to PBS was less than 10%, cholecalciferol was evaluated to have been dissolved.

A short description of data set [3]: Solubility of the hardly water-soluble substance in PBS (statement). The conditions noted are these: PBS without solubilizing agent.
Data set [4] in a line: Solubilization test of lauric acid: turbidity at 450 nm. It is filed as physicochemical. The conditions noted are these: for turbidity: solubilizing agent 5.000% by mass in PBS, lauric acid 100 mg/mL in ethanol, 3 μL/well, absorbance 450 nm minus PBS alone; for turbidity ratio to PBS: solubilizing agent 5.000% by mass, lauric acid, less than 10% = dissolved. The method, then:
Lauric acid was dissolved in ethanol at a concentration of 100 mg/mL to prepare a lauric acid solution.
In the same manner as above except that PBS was used instead of the solubilizing solution, “turbidity of a mixture of PBS and a lauric acid solution” (that is, difference between the absorbance of a mixture of PBS and a lauric acid solution at a wavelength of 450 nm and the absorbance of PBS alone at a wavelength of 450 nm) was calculated.
As an index for evaluation of whether or not lauric acid is dissolved, turbidity ratio to PBS was calculated by the following formula: • turbidity ratio to PBS (%)=100×(turbidity of a mixture of solubilizing solution and lauric acid solution)/(turbidity of a mixture of PBS and lauric acid solution). When the turbidity ratio to PBS was less than 10%, lauric acid was evaluated to have been dissolved.

A short description of data set [5]: Solubilization test of myristic acid: turbidity at 450 nm. It is filed as physicochemical. The conditions noted are these: for turbidity: solubilizing agent 5.000% by mass in PBS, myristic acid 100 mg/mL in ethanol, 3 μL/well, absorbance 450 nm minus PBS alone; for turbidity ratio to PBS: solubilizing agent 5.000% by mass, myristic acid, less than 10% = dissolved. As to the method:
Myristic acid was dissolved in ethanol at a concentration of 100 mg/mL to prepare a myristic acid solution.
In the same manner as above except that PBS was used instead of the solubilizing solution, “turbidity of a mixture of PBS and a myristic acid solution” (that is, difference between the absorbance of a mixture of PBS and a myristic acid solution at a wavelength of 450 nm and the absorbance of PBS alone at a wavelength of 450 nm) was calculated.
As an index for evaluation of whether or not myristic acid is dissolved, turbidity ratio to PBS was calculated by the following formula: • turbidity ratio to PBS (%)=100×(turbidity of a mixture of solubilizing solution and myristic acid solution)/(turbidity of a mixture of PBS and myristic acid solution). When the turbidity ratio to PBS was less than 10%, myristic acid was evaluated to have been dissolved.

Data set [6] is described as follows: Solubilization test of DL-α-tocopherol (vitamin E): turbidity at 450 nm. Format: physicochemical. The conditions noted are these: for turbidity: DL-α-tocopherol 20 mg/mL in ethanol, 1 μL/well, absorbance 450 nm minus PBS alone; for turbidity ratio to PBS: DL-α-tocopherol, less than 10% = dissolved. As to the method:
DL-α-tocopherol (vitamin E) was dissolved in ethanol at a concentration of 20 mg/mL to prepare a DL-α-tocopherol solution.
In the same manner as above except that PBS was used instead of the solubilizing solution, “turbidity of a mixture of PBS and a DL-α-tocopherol solution” (that is, difference between the absorbance of a mixture of PBS and a DL-α-tocopherol solution at a wavelength of 450 nm and the absorbance of PBS alone at a wavelength of 450 nm) was calculated.
As an index for evaluation of whether or not DL-α-tocopherol is dissolved, turbidity ratio to PBS was calculated by the following formula: turbidity ratio to PBS (%)=100×(turbidity of a mixture of solubilizing solution and DL-α-tocopherol solution)/(turbidity of a mixture of PBS and DL-x-tocopherol solution). When the turbidity ratio to PBS was less than 10%, DL-α-tocopherol was evaluated to have been dissolved.

Where [7] appears, read: solubilizing agent 0.025% by mass in PBS.
The mark [8] stands for this setting: solubilizing agent 0.025% by mass.
Where [9] appears, read: solubilizing agent 0.050% by mass in PBS.
[10] abbreviates: solubilizing agent 0.050% by mass.

As for `CCCCCCCCCCCCCCCCSCC(C)C(=O)OCCOP(=O)([O-])OCC[N+](C)(C)C` (centres unmarked) [Synthetic Example 3, 2-[3-(hexadecylsulfanyl)-2-methylpropionyloxy]ethyl-2-(trimethylammonio)ethyl phosphate], the turbidity in data set [1] came out at 0.0015; in data set [2] (setting [7]), 0.0231; in data set [2] (setting [9]), 0.0139. For the same compound, the “turbidity ratio to PBS” value in data set [1] is recorded as 3%; in data set [1] (listed as Example 3-3) it was “less than 10%”; in data set [2] (setting [8]), 9%; in data set [2] (setting [10]), 6%.

Turning to `CCCCCCCCCCCC(=O)O` [Lauric acid], the “solubility in PBS” value in data set [3] is “insoluble”.

With `CCCCCCCCCCCCCC(=O)O` [Myristic acid], in data set [3], the “solubility in PBS” value is given as “insoluble”.

Triton X-100 [reference compound]: the turbidity is 0.0002 in data set [4]; 0.0910 in data set [1]; 0.0601 in data set [5]; 0.0331 in data set [2] (setting [9]); 0.2573 in data set [6] (setting [9]). Also, the “turbidity ratio to PBS” value in data set [4] is reported as 0%; in data set [1], 205%; in data set [5], 14%; in data set [2] (setting [10]) it was 13%; in data set [6] (setting [10]), 147%; in data set [6] (solubilizing agent 0.050% by mass, listed as Comparative Example 2-2-1), “not less than 10%”.

For `CCCCCCCCCCCCSCC(C)C(=O)OCCOP(=O)([O-])OCC[N+](C)(C)C` (centres unmarked) [Synthetic Example 2, 2-[3-(dodecylsulfanyl)-2-methylpropionyloxy]ethyl-2-(trimethylammonio)ethyl phosphate], the results for the turbidity in data set [2] (setting [7]), in data set [2] (setting [9]) and in data set [6] (setting [9]) were 0.0080, 0.0009 and 0.0153, respectively. The “turbidity ratio to PBS” value stood at 3% in data set [2] (setting [8]), 0% in data set [2] (setting [10]) and 9% in data set [6] (setting [10]).

With `CCCCCCCCSCC(C)C(=O)OCCOP(=O)([O-])OCC[N+](C)(C)C` (centres unmarked) [Synthetic Example 1, 2-[3-(octylsulfanyl)-2-methylpropionyloxy]ethyl-2-(trimethylammonio)ethyl phosphate], the turbidity turned out to be 0.0000 in data set [4]; 0.0231 in data set [5]; 0.0229 in data set [2] (setting [7]); 0.0132 in data set [2] (setting [9]); 0.0150 in data set [6] (setting [7]); 0.0000 in data set [6] (setting [9]). Further, the “turbidity ratio to PBS” value was 0% in data set [4]; “less than 10%” in data set [4] (listed as Example 4-1); 5% in data set [5]; “less than 10%” in data set [5] (listed as Example 5-1); 9% in data set [2] (setting [8]); 5% in data set [2] (setting [10]). The “turbidity ratio to PBS” value came to 9% in data set [6] (setting [8]) and 0% in data set [6] (setting [10]).

On to `Cc1c(C)c2c(c(C)c1O)CCC(C)(CCCC(C)CCCC(C)CCCC(C)C)O2` (racemic) [DL-α-tocopherol, reference compound], for which the “solubility in PBS” value in data set [3] is “insoluble”.

These data come from patent publication US12559681B2, “Solubilizing agent and solubilizing solution” (NOF CORPORATION, priority 2020, dated 2026).
